# Assays:
# Type in all cases: biochemical
# JAK1 = biological target: T1, JAK1 (Homo sapiens, UniProt P23458); experiment: JAK1 inhibition (Table 4); conditions: read-out: JAK1 Ki
# T1 construct: made in house; host or cells: SF9 insect cells (baculovirus)
# JAK2 = biological target: T2, JAK2 (Homo sapiens, UniProt O60674); experiment: JAK2 inhibition (Table 4); conditions: read-out: JAK2 Ki
# T2 construct: made in house; host or cells: SF9 insect cells (baculovirus)
# JAK3 = biological target: T3, JAK3 (Homo sapiens, UniProt P52333); experiment: JAK3 inhibition (Table 4); conditions: read-out: JAK3 Ki
# T3 construct: made in house; host or cells: SF9 insect cells (baculovirus)
# T3 sequence (P52333 783-1124): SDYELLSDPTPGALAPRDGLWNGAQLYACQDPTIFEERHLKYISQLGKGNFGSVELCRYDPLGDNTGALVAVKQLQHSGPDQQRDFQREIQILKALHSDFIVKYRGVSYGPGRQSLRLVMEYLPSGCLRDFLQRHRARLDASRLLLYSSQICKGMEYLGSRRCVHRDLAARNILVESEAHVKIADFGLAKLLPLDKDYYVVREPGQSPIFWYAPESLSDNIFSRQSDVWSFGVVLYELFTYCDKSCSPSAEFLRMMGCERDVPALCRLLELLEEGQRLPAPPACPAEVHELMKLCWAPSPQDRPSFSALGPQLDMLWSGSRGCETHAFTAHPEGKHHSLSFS
# TYK2 = biological target: T4, TYK2 (Homo sapiens, UniProt P29597); experiment: TYK2 inhibition (Table 4)
# T4 construct: made in house; host or cells: SF9 insect cells (baculovirus)
# T4 sequence (P29597 873-1187): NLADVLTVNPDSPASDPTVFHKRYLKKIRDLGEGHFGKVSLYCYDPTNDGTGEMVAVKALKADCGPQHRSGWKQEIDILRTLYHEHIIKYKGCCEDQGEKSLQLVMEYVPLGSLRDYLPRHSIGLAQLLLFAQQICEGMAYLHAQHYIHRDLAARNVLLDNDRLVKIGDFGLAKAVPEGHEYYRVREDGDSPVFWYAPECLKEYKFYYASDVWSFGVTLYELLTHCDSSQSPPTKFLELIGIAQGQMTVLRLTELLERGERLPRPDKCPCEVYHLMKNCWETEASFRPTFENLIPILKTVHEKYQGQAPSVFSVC
# T1 sequence (P23458 852-1154): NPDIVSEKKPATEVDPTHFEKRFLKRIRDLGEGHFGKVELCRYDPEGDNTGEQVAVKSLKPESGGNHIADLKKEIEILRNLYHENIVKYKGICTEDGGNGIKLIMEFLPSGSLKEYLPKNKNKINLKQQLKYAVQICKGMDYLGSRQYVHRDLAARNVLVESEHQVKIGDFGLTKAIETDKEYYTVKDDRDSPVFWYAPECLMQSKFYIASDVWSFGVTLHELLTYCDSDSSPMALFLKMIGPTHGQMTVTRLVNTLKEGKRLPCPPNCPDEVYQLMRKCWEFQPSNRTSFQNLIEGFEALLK
# T2 sequence (O60674 812-1132): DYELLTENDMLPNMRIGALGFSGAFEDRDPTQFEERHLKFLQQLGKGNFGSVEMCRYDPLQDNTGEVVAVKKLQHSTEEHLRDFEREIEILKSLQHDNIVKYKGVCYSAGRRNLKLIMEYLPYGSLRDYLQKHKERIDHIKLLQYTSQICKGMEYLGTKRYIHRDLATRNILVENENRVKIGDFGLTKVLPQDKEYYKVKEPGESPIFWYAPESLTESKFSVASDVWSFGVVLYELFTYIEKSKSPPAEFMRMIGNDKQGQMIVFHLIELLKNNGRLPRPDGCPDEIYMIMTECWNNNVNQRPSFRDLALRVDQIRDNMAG
Ki (JAK1),Ki (JAK2),Ki (JAK3),Ki (TYK2),Compound
4.63 nM,6.3 nM,86.5 nM,38 nM,"N#CCCn1ncc2c1CC[C@H](n1cnc3cnc4[nH]ccc4c31)C2 [Example 959, 3-[(S)-5-(6H-1,3,5,6-Tetraaza-as-indacen-1-yl)-4,5,6,7-tetrahydro-indazol-1-yl]-propionitrile]"
1.69 nM,63 nM,44.4 nM,17 nM,"C[C@@H](O)c1nc2cnc3[nH]ccc3c2n1[C@H]1CC[C@@H](NCC(F)(F)F)C1 [Example 1004, (R)-1-{1-[(1S,3R)-3-(2,2,2-Trifluoro-ethylamino)-cyclopentyl]-1,6-dihydro-1,3,5,6-tetraaza-as-indacen-2-yl}-ethanol]"
9.76 nM,20.8 nM,237 nM,87 nM,"CN(C)C(=O)N[C@H]1CC[C@H](n2cnc3cnc4[nH]ccc4c32)CC1 [Example 603, Trans 1,1-dimethyl-3-[4-(6H-1,2,3,5,6-tetraaza-as-indacen-1-yl)-cyclohexyl]-urea]"
6.22 nM,29.7 nM,4.88 nM,94.6 nM,"Cc1nc2cnc3[nH]ccc3c2n1[C@H]1CC[C@@H](NCCC#N)C1 [Example 723, 3-[(1R,3S)-3-(2-Methyl-6H-1,3,5,6-tetraaza-as-indacen-1-yl)-cyclopentylamino]-propionitrile]"
29.3 nM,26 nM,85.2 nM,171 nM,"Cc1nc2cnc3[nH]ccc3c2n1[C@@H]1CCCN(Cc2ccccc2)C1 [Example 238, (R)-1-(1-Benzyl-piperidin-3-yl)-2-methyl-1,6-dihydro-1,3,5,6-tetraaza-as-indacene]"
181 nM,568 nM,1820 nM,3180 nM,"CN(C)CC(=O)N1CCC[C@@H](n2cnc3cnc4[nH]ccc4c32)C1 [Example 32, 2-Dimethylamino-1-[(R)-3-(6H-1,3,5,6-tetraaza-as-indacen-1-yl)-piperidin-1-yl]ethanone]"
10.8 nM,12.8 nM,283 nM,98.2 nM,"O=S(=O)(N1CCC(n2cnc3cnc4[nH]ccc4c32)CC1)C(F)(F)F [Example 89, 1-(1-Trifluoromethanesulfonyl-piperidin-4-yl)-1,6-dihydro-1,3,5,6-tetraaza-as-indacene]"
34.4 nM,35.7 nM,873 nM,268 nM,"Cc1nn(C)cc1S(=O)(=O)N1CCC(n2cnc3cnc4[nH]ccc4c32)CC1 [Example 448, 1-[1-(1,3-Dimethyl-1H-pyrazole-4-sulfonyl)-piperidin-4-yl]-1,6-dihydro-1,3,5,6-tetraaza-as-indacene]"
0.58 nM,1.11 nM,13.2 nM,21.6 nM,"FC1(F)CN(Cc2ccccc2)CCC1n1cnc2cnc3[nH]ccc3c21 (stereo not shown) [Example 179, 1-(1-Benzyl-3,3-difluoro-piperidin-4-yl)-1,6-dihydro-1,2,3,5,6-tetraaza-as-indacene]"
3.76 nM,28.2 nM,18.2 nM,32.9 nM,"CC(O)c1nc2cnc3[nH]ccc3c2n1C1CCN(CCC#N)CC1 (racemic) [Example 158, Racemic 3-{4-[2-(1-Hydroxy-ethyl)-6H-1,2,3,5,6-tetraaza-as-indacen-1-yl]-piperidin-1-yl}-propionitrile]"
32.2 nM,64.3 nM,716 nM,153 nM,"c1cc2c(ncc3ncn(C4CCN(C5CCOCC5)CC4)c32)[nH]1 [Example 85, 1-[-(Tetrahydro-pyran-4-yl)-piperidin-4-yl]-1,6-dihydro-1,3,5,6-tetraaza-as-indacene]"
61.4 nM,320 nM,206 nM,750 nM,"CC(CF)N1CCC(n2c([C@@H](C)O)nc3cnc4[nH]ccc4c32)CC1 (stereo partly shown) [Example 691, 1-{1-[1-(2-Fluoro-1-methyl-ethyl)-piperidin-4-yl]-1,6-dihydro-1,2,3,5,6-tetraaza-as-indacen-2-yl}-ethanol]"
3.41 nM,21.2 nM,17.9 nM,179 nM,"CCN1CCC(n2c(CCNS(C)(=O)=O)nc3cnc4[nH]ccc4c32)C(F)(F)C1 (single isomer, unassigned) [Example 806, N-{2-[1-(1-Ethyl-3,3-difluoro-piperidin-4-yl)-1,6-dihydro-1,3,5,6-tetraaza-as-indacen-2-yl]-ethyl}-methanesulfonamide]"
12.7 nM,95.8 nM,448 nM,254 nM,"CC(C)CN[C@H]1CC[C@H](n2cnc3cnc4[nH]ccc4c32)CC1 [Example 569, trans Isobutyl-[4-(6H-1,3,5,6-tetraaza-as-indacen-1-yl)-cyclohexyl]-amine]"
5.06 nM,16.1 nM,7.5 nM,120 nM,"N#CCCN1CCC(n2c(CC(=O)NC3CCCC3)nc3cnc4[nH]ccc4c32)CC1 [Example 268, 2-{1-[1-(2-Cyano-ethyl)-piperidin-4-yl]-1,6-dihydro-1,3,5,6-tetraaza-as-indacen-2-yl}-N-cyclopentyl-acetamide]"
5.96 nM,121 nM,276 nM,259 nM,"CC(=O)NCCc1nc2cnc3[nH]ccc3c2n1[C@H]1CCCOC1 [Example 856, (S)—N-{2-[1-(Tetrahydro-pyran-3-yl)-1,6-dihydro-1,3,5,6-tetraaza-as-indacen-2-yl]-ethyl}-acetamide]"
23.5 nM,49.9 nM,50.8 nM,70.5 nM,"c1cc2c(ncc3ncn(C4CCCOC4)c32)[nH]1 (single isomer, unassigned) [Example 465, 1-(Tetrahydro-pyran-3-yl)-1,6-dihydro-1,3,5,6-tetraaza-as-indacene]"
86.6 nM,395 nM,1140 nM,1030 nM,c1cc2c(ncc3nnn(C4CCNCC4)c32)[nH]1 [Example 231]
4.53 nM,8.44 nM,7.19 nM,107 nM,"CN(CC(F)(F)F)C(=O)NC1CCC(n2cnc3cnc4[nH]ccc4c32)C1 (racemic) [Example 737, 1-Methyl-3-[3-(6H-1,3,5,6-tetraaza-as-indacen-1-yl)-cyclopentyl]-1-(2,2,2-trifluoro-ethyl)-urea]"
15.5 nM,15.2 nM,418 nM,193 nM,"COC(=O)CC(c1cccnc1)N1CCC(n2cnc3cnc4[nH]ccc4c32)CC1 (racemic) [Example 126, 3-pyridin-3-yl-3-[4-(6H-1,2,3,5,6-tetraaza-as-indacen-1-yl)-piperidin-1-yl]-propionic acid methyl ester]"
78.8 nM,506 nM,300 nM,109 nM,"O=C(Cc1nc2cnc3[nH]ccc3c2n1C1CCCOC1)N1CCCOCC1 (racemic) [Example 980, 1-[1,4]Oxazepan-4-yl-2-[1-(tetrahydro-pyran-3-yl)-1,6-dihydro-1,3,5,6-tetraaza-as-indacen-2-yl]-ethanone]"
62.6 nM,115 nM,283 nM,428 nM,"CC(=O)N1CCC(c2nc3cnc4[nH]ccc4c3n2C2CCN(C(C)CC#N)CC2)CC1 (racemic) [Example 400, 3-{4-[2-(1-Acetyl-piperidin-4-yl)-6H-1,3,5,6-tetraaza-as-indacen-1-yl]-piperidin-1-yl}-butyronitrile]"
1.64 nM,8.15 nM,20.5 nM,91.4 nM,"O=C(NC1CCC(n2nnc3cnc4[nH]ccc4c32)C1)OCC(F)(F)F (racemic) [Example 620, Racemic trans [3-(6H-1,2,3,5,6-Pentaaza-as-indacen-1-yl)-cyclopentyl]-carbamic acid 2,2,2-trifluoro-ethyl ester]"
0.61 nM,2.16 nM,8.35 nM,8.02 nM,"Cc1nc2cnc3[nH]ccc3c2n1C1CCN(CC(F)(F)F)CC1 [Example 587, 2-Methyl-1-[1-(2,2,2-trifluoro-ethyl)-piperidin-4-yl]-1,6-dihydro-1,2,3,5,6-tetraaza-as-indacene]"
33.5 nM,117 nM,85.4 nM,637 nM,"N#CCCN1CCC(n2c(COCC(F)(F)F)nc3cnc4[nH]ccc4c32)CC1 [Example 834, 3-{4-[2-(2,2,2-Trifluoro-ethoxymethyl)-6H-1,3,5,6-tetraaza-as-indacen-1-yl]-piperidin-1-yl}-propionitrile]"
37.6 nM,157 nM,100 nM,300 nM,"O=C(Cc1nc2cnc3[nH]ccc3c2n1C1CCCOC1)NC1CCOCC1 (racemic) [Example 983, N-(Tetrahydro-pyran-4-yl)-2-[1-(tetrahydro-pyran-3-yl)-1,6-dihydro-1,3,5,6-tetraaza-as-indacen-2-yl]-acetamide]"
10.3 nM,24 nM,52.9 nM,38.5 nM,"OC1CCCC(n2cnc3cnc4[nH]ccc4c32)C1 (single isomer, unassigned) [Example 559, 3-(6H-1,3,5,6-Tetraaza-as-indacen-1-yl)-cyclohexanol]"
23.3 nM,184 nM,2380 nM,823 nM,"CC(C(=O)N1CCC(n2cnc3cnc4[nH]ccc4c32)CC1)N(C)C (racemic) [Example 438, 2-Dimethylamino-1-[4-(6H-1,3,5,6-tetraaza-as-indacen-1-yl)-piperidin-1-yl]-propan-1-one]"
